Results reported in patent publication US11319303B2 (WIGEN BIOMEDICINE TECHNOLOGY (SHANGHAI) CO., LTD., priority 2017, dated 2022).
Where two headings read alike, the source gives them in different places.

Biological target: LC3B (Homo sapiens, UniProt Q9GZQ8)
Assay: Fluorescence Polarization (FP) Assay: displacement of FITC-labeled peptide from GST-LC3B
Type: binding
Procedure: The compounds of the present invention for regulating the autophagy-related protein LC3B were tested by Fluorescence Polarization (FP) Assay.
Fluorescence Polarization (FP) Assay Test

[1] = Fluorescence Polarization assay, GST-LC3B 180 nM, FITC-labeled peptide 18 nM, 25° C., read-out: IC50

Compound	IC50 [1] [µM]	IC50 [µM]
CN(C)CCNC=C1C(=O)CC(c2cccc(Cl)c2F)CC1=O (centres unmarked) [Compound 384, 5-(3-chloro-2-fluorophenyl)-2-(((2-(dimethylamino)ethyl)amino)methylene) cyclohexane-1,3-dione]	–	< 3
O=C1CC(C(O)c2ccccc2)C(=O)/C1=C\NCCN1CCN(CCO)CC1 (centres unmarked) [Compound 391, 4-(hydroxy(phenyl)methyl)-2-(((2-(4-(2-ethoxyl)piperazin-1-yl)ethyl)amino)methylene) cyclopentane-1,3-dione]	15 to 100	–
O=C1CC(c2c[nH]c3cccc(Cl)c23)CC(=O)C1=CNCCN1CCN(CCO)CC1 (centres unmarked) [Compound 394, 5-(4-chloro-1H-indol-3-yl)-2-(((2-(4-(2-ethoxyl)piperazin-1-yl)ethyl)amino)methylene) cyclohexane-1,3-dione]	< 3	–
CCN(CC)CCCC(C)N/C=C1\C(=O)Nc2cc(Cl)ccc2C1=O (centres unmarked) [Compound 395, 7-chloro-3-(((5-(diethylamino)penta-2-yl)amino)methylene) quinoline-2,4 (1H,3H)-dione]	3 to 15	–
COc1ccc(C2CC(=O)C(=CNCCN(C)C)C(=O)C2)c(F)c1F (centres unmarked) [Compound 403, 5-(2,3-difluoro-4-methoxyphenyl)-2-(((2-(dimethylamino)ethyl)amino)methylene) cyclohexane-1,3-dione]	–	< 3
O=C1CC(=Cc2ccccc2)C(=O)C1=CNCCN1CCN(CCO)CC1 [Compound 407, 4-benzylidene-2-(((2-(4-(2-ethoxyl)piperazin-1-yl)ethyl)amino)methylene) cyclopentane-1,3-dione]	15 to 100	–
O=C1CC(c2cccc(Cl)c2Cl)CC(=O)C1=CN1CCCCC1 (centres unmarked) [Compound 408, 5-(2,3-dichlorophenyl)-2-(piperidine-1-ylmethylene) cyclohexane-1,3-dione]	3 to 15	–
CN(C)CCNC=C1C(=O)CC(c2cccc(F)c2Cl)CC1=O (centres unmarked) [Compound 410]	–	< 3
CN(C)CCNC=C1C(=O)CC(c2c[nH]cc2Br)CC1=O (centres unmarked) [Compound 413, 5-(4-bromo-1H-pyrrole-3-yl)-2-(((2-(dimethylamino)ethyl)amino)methylene) cyclohexane-1,3-dione]	3 to 15	–
CN(C)CCNC=C1C(=O)CC(c2c[nH]c(-c3ccccc3)c2)CC1=O (centres unmarked) [Compound 414, 2-(((2-(dimethylamino)ethyl)amino)methylene)-5-(5-phenyl-1H-pyrrole-3-yl)cyclohexane-1,3-dione]	3 to 15	–
Cc1ccc(C2CC(=O)C(=CO)C(=O)C2)cc1 (centres unmarked) [Compound 415, 2-(hydroxymethylene)-5-(4-methylphenyl)cyclo-hexane-1,3-dione]	3 to 15	–
O=C1CC(c2ccccc2Cl)CC(=O)C1=CO (centres unmarked) [Compound 418, 2-(hydroxymethylene)-5-(2-chlorophenyl)cyclo-hexane-1,3-dione]	< 3	–
O=C1CC(c2cccc(Cl)c2)CC(=O)C1=CO (centres unmarked) [Compound 419, 2-(hydroxymethylene)-5-(3-chlorophenyl)cyclo-hexane-1,3-dione]	< 3	–
O=C1CC(c2c(Cl)cccc2Cl)CC(=O)C1=CO (centres unmarked) [Compound 420, 2-(hydroxymethylene)-5-(2,6-dichlorophenyl)cyclo-hexane-1,3-dione]	< 3	–
O=C1CC(c2cccc(Cl)c2Cl)CC(=O)C1=CO (centres unmarked) [Compound 421, 2-(hydroxymethylene)-5-(2,3-dichlorophenyl)cyclo-hexane-1,3-dione]	< 3	–
O=C1CC(c2ccccc2Br)CC(=O)C1=CO (centres unmarked) [Compound 422, 2-(hydroxymethylene)-5-(2-bromophenyl)cyclo-hexane-1,3-dione]	< 3	–
COc1ccccc1C1CC(=O)C(=CO)C(=O)C1 (centres unmarked) [Compound 423, 2-(hydroxymethylene)-5-(2-methoxyphenyl)cyclo-hexane-1,3-dione]	3 to 15	–
COc1ccc(C2CC(=O)C(=CO)C(=O)C2)c(OC)c1 (centres unmarked) [Compound 424, 2-(hydroxymethylene)-5-(2,4-dimethoxyphenyl) cyclohexane-1,3-dione]	3 to 15	–
N#Cc1ccc(C2CC(=O)C(=CO)C(=O)C2)cc1 (centres unmarked) [Compound 425, 2-(hydroxymethylene)-5-(4-cyanophenyl)cyclo-hexane-1,3-dione]	15 to 100	–
O=C1CC(c2ccccc2C(F)(F)F)CC(=O)C1=CO (centres unmarked) [Compound 426, 2-(hydroxymethylene)-5-(2-trifluoromethylphenyl) cyclohexane-1,3-dione]	< 3	–
O=C1CC(c2cccs2)CC(=O)C1=CO (centres unmarked) [Compound 427, 2-(hydroxymethylene)-5-(2-thiophen)cyclohexane-1,3-dione]	3 to 15	–
O=C1CC(c2ccsc2)CC(=O)C1=CO (centres unmarked) [Compound 428, 2-(hydroxymethylene)-5-(3-thiophen)cyclohexane-1,3-dione]	3 to 15	–
O=C1CC(c2cccc3[nH]ccc23)CC(=O)C1=CO (centres unmarked) [Compound 429, 2-(hydroxymethylene)-5-(1H-indol-4-yl)cyclohexane-1,3-dione]	< 3	–

Continued, in another order:

IC50 [1] [µM]	Compound	IC50 [µM]
< 3	CN(C)CCNC=C1C(=O)CC(c2ccc(Cl)cc2F)CC1=O (centres unmarked) [Compound 382, 5-(4-chloro-2-fluorophenyl)-2-(((2-(dimethylamino)ethyl)amino)methylene) cyclohexane-1,3-dione]	–
< 3	CN(C)CCNC=C1C(=O)CC(c2c(F)cccc2F)CC1=O (centres unmarked) [Compound 383, 5-(2,6-difluorophenyl)-2-(((2-(dimethylamino)ethyl)amino)methylene) cyclohexane-1,3-dione]	–
< 3	CN(C)CCNC=C1C(=O)CC(c2ccccc2N)CC1=O (centres unmarked) [Compound 386, 5-(2-aminophenyl)-2-(((2-(dimethylamino)ethyl)amino)methylene) cyclohexane-1,3-dione]	–
< 3	O=C1CC(c2cccc(F)c2F)CC(=O)C1=CNCCN1CCN(CCO)CC1 (centres unmarked) [Compound 387, 5-(2,3-difluorophenyl)-2-(((2-(4-(2-ethoxyl)piperazin-1-yl)ethyl)amino)methylene) cyclohexane-1,3-dione]	–
< 3	CN(C)CCNC=C1C(=O)CC(c2cscc2Br)CC1=O (centres unmarked) [Compound 388, 5-(4-bromothiophen-3-yl)-2-(((2-(dimethylamino)ethyl)amino)methylene) cyclohexane-1,3-dione]	–
< 3	CN(C)CCNC=C1C(=O)CC(C(=O)Nc2ccc(-c3ccccc3)cc2)CC1=O (centres unmarked) [Compound 389]	–
< 3	CN(C)CCNC=C1C(=O)CC(c2cc(Cl)ccc2F)CC1=O (centres unmarked) [Compound 390, 5-(5-chloro-2-fluorophenyl)-2-(((2-(dimethylamino)ethyl)amino)methylene) cyclohexane-1,3-dione]	–
< 3	O=C1CC(c2cc3[nH]ccc3cc2Br)CC(=O)C1=CNCCN1CCN(CCO)CC1 (centres unmarked) [Compound 392, 5-(5-bromo-1H -indol-6-yl)-2-(((2-(4-(2-ethoxyl)piperazin-1-yl)ethyl)amino)methylene) cyclohexane-1,3-dione]	–
< 3	CN(C)CCNC=C1C(=O)CC(c2c(Cl)ccc(Cl)c2Cl)CC1=O (centres unmarked) [Compound 397, 2-(((2-(dimethylamino)ethyl)amino)methylene)-5-(2,3,6-trichlorophenyl) cyclohexane-1,3-dione]	–
< 3	CN(C)CCNC=C1C(=O)CC(c2c(Cl)ccc(F)c2F)CC1=O (centres unmarked) [Compound 398, 5-(6-chloro-2,3-difluorophenyl)-2-(((2-(dimethylamino)ethyl)amino)methylene) cyclohexane-1,3-dione]	–
< 3	O=C1CC(c2cccc(Cl)c2Cl)CC(=O)C1=CNCCN1CCN(CCO)CC1 (centres unmarked) [Compound 400, 5-(2,3-dichlorophenyl)-2-(((2-(4-(2-ethoxyl)piperazin-1-yl)ethyl)amino)methylene) cyclohexane-1,3-dione]	–
< 3	CN(C)CCNC=C1C(=O)CC(c2ccc(F)c(F)c2F)CC1=O (centres unmarked) [Compound 401, 2-(((2-(dimethylamino)ethyl)amino)methylene)-5-(2,3,4-trifluorophenyl) cyclohexane-1,3-dione]	–
< 3	CN(C)CCNC=C1C(=O)CC(c2c(F)c(F)cc(F)c2F)CC1=O (centres unmarked) [Compound 402, 2-(((2-(dimethylamino)ethyl)amino)methylene)-5-(2,3,5,6-tetrafluorophenyl) cyclohexane-1,3-dione]	–
< 3	CC(F)(F)c1ccccc1C1CC(=O)C(=CNCCN2CCN(CCO)CC2)C(=O)C1 (centres unmarked) [Compound 404, 5-(2-(1,1-difluoroethyl)phenyl)-2-(((2-(4-(2-ethoxyl)piperazin-1-yl)ethyl)amino)methylene) cyclohexane-1,3-dione]	–
< 3	O=C1CC(c2cccc3[nH]c(Br)c(Cl)c23)CC(=O)C1=CNCCN1CCN(CCO)CC1 (centres unmarked) [Compound 405, 5-(2-bromo-3-chloro-1H-indol-4-yl)-2-(((2-(4-(2-ethoxyl)piperazin-1-yl)ethyl)amino)methylene) cyclohexane-1-1,3-dione]	–
< 3	O=C1CC(c2ccccc2-c2c(Cl)cccc2Cl)CC(=O)C1=CNCCN1CCN(CCO)CC1 (centres unmarked) [Compound 406, 5-(2′,6′-dichloro-[1,1′-biphenyl]-2-yl)-2-(((2-(4-(2-ethoxyl)piperazin-1-yl)ethyl)amino)methylene) cyclohexane-1,3-dione]	–
< 3	CN(C)CCNC=C1C(=O)CC(c2c(Br)ccc(F)c2F)CC1=O (centres unmarked) [Compound 409]	–
< 3	CN(C)CCNC=C1C(=O)CC(c2c(Cl)ccc(F)c2Cl)CC1=O (centres unmarked) [Compound 411, 5-(2,6-dichloro-3-fluorophenyl)-2-(((2-(dimethylamino)ethyl)amino)methylene) cyclohexane-1,3-dione]	–
< 3	CN(C)CCNC=C1C(=O)CC(c2c(F)c(F)c(F)c(F)c2F)CC1=O (centres unmarked) [Compound 412, 2-(((2-(dimethylamino)ethyl)amino)methylene)-5-(perfluorophenyl) cyclohexane-1,3-dione]	–
< 3	O=C1CC(c2ccccc2F)CC(=O)C1=CO (centres unmarked) [Compound 416, 2-(hydroxymethylene)-5-(2-fluorophenyl)cyclo-hexane-1,3-dione]	–
< 3	O=C1CC(c2cccc(F)c2F)CC(=O)C1=CO (centres unmarked) [Compound 417, 2-(hydroxymethylene)-5-(2,3-difluorophenyl)cyclo-hexane-1,3-dione]	–
